Laboratory results published in EP3338775B1, “USE OF BUTYLIDENEPHTHALIDE” (Everfront Biotech Inc., priority 2015, dated 2017).
“And” between values parts separate entries of the source, which are not always exact repeats. Identical values can stand only once.

What was measured:
Assay type in all cases: cell-based
brain CSCs ^CD133+ = test: MTT cell viability assay on brain CSCs CD133+
Description: Thereafter, a cell viability assay, MTT assay, was utilized to analyze the viabilities of brain CSCs ^CD133+ and malignant glioma DBTRG cells. […]

[1] = test system: NHOKs (normal human oral keratinocytes); test: MTT viability assay on normal human oral keratinocytes; conditions: BP 0, 25, 50 and 100 µg/ml for 24 hours; Figure 2
Method: NHOKs (normal human oral keratinocytes) and HNC-TIC (head and neck cancer-derived tumor initiating cell)-like oral stem cells (i.e., ALDH1^+CD44^+-1 cell line or ALDH1^+CD44^+-2 cell line) were treated with different concentrations (0, 25, 50 and 100 µg/ml) of BP for 24 hours, and then, an MTT assay was utilized to analyzed the viabilities of NHOKs and HNC-TIC-like oral stem cells (i.e., ALDH1^+CD44^+-1 cell line and ALDH1^+CD44^+-2 cell line).

EZH2 = test: Western blotting of EZH2 protein in brain CSCs CD133+; conditions: BP 0, 12.5, 25, 50, 62.5 and 75 µg/ml; Figure 3
Method: It has been known that EZH2 (enhancer of zeste homolog 2) gene is a critical growth related factor of cancer stem cells, and it will affect the growth and growth characteristics of cancer stem cells. Brain CSCs ^CD133+ was treated with different concentrations (0, 12.5, 25, 50, 62.5 and 75 µg/ml) of BP, and then, proteins were extracted from the cells to conduct Western blotting to determine the expression of EZH2 protein in the BP-treated brain CSCs ^CD133+.

[2] = test system: Sox-2, CD133 and CD44 proteins; test: Western blotting of stemness-maintenance markers in MiaPaCa-2 cells; conditions: BP 0, 12.5, 25 and 50 µg/ml for 24 hours; Figure 6
Method: It has been known that CD44, CD133, Sox-2 (sex-determining region Y protein (SRY)-related high-mobility group box 2) and Oct4 (octamerbinding transcription factor 4) proteins all are stemness-maintenance markers of cancer stem cells and participate in the regulation of the self-renewal and differentiation of cancer stem cells. Brain CSCs ^CD133+ was treated with different concentrations (0, 12.5, 25, 50, 62.5 and 75 µg/ml) of BP for 24 hours, and then, proteins were extracted from the cells to conduct Western blotting to determine the expressions of CD133, Sox-2 and Oct4 proteins in the BP-treated brain CSCs ^CD133+. In addition, MiaPaCa-2 cell line (i.e., a cell line of pancreatic cancer cells) was treated with different concentrations (0, 12.5, 25, and 50 µg/ml) of BP for 24 hours, and then, proteins were extracted from the cells to conduct Western blotting to determine the expressions of Sox-2, CD133 and CD44 proteins in the BP-treated MiaPaCa-2 cells. […]

[3] = test system: Axl and Gas6 proteins, Axl gene; test: Western blotting and RT-PCR of Axl and Gas6 in brain CSCs CD133+; conditions: BP 0, 12.5, 25, 50, 62.5 and 75 µg/ml for 24 hours, Figures 9A, 9B
Method: It has been known that the expression of Axl (i.e., a receptor tyrosine kinase) is related to the ability of cancer stem cells in proliferation, anti-apoptosis, migration and invasion. Brain CSCs ^CD133+ was treated with different concentrations (0, 12.5, 25, 50, 62.5 and 75 µg/ml) of BP for 24 hours, and then, proteins and total RNA were extracted from the cells to conduct Western blotting and reverse transcriptase-polymerase chain reaction (RT-PCR) to determine the expressions of Axl and Gas6 (i.e., a ligand of Axl) proteins and the expression of Axl gene in the BP-treated brain CSCs ^CD133+.

MMP-2 = test: Western blotting of MMP-2 protein in brain CSCs CD133+; conditions: BP 0, 12.5, 25, 50, 62.5 and 75 µg/ml for 24 hours, Figure 10
Method: It has been known that at the start of the invasion of cancer stem cells, the extracellular matrix (ECM) is degraded by matrix metalloproteinases (MMPs). Wherein, the expressions of gelatinases, such as gelatinase-A (i.e., MMP-2) and gelatinase-B (i.e., MMP-9), are highly related to the histopathology of tumor metastasis. Brain CSCs ^CD133+ was treated with different concentrations (0, 12.5, 25, 50, 62.5 and 75 µg/ml) of BP for 24 hours, and then, proteins were extracted from the cells to conduct Western blotting to determine the expression of MMP-2 protein in the BP-treated brain CSCs ^CD133+.

[4] = test system: HNC-TIC-like oral stem cells (ALDH1^+CD44^+-1 cell line or ALDH1^+CD44^+-2 cell line); test: Soft agar colony formation assay with HNC-TIC-like oral stem cells; conditions: BP 0, 25 and 50 µg/ml for 24 hours
Method: In this research, a soft agar colony formation assay was used to investigate the effect of BP on inhibiting the tumor initiating activity of cancer stem cells. First, HNC-TIC-like oral stem cells (i.e., ALDH1^+CD44^+-1 cell line or ALDH1^+CD44^+-2 cell line) were treated with different concentrations (0, 25 and 50 µg/ml) of BP for 24 hours, and then, the treated cells of each group was separately seeded in the top agar [containing DMEM (Dulbecco's Modified Eagle's Medium medium), 10 % (v/v) Fetal Calf Serum (FCS) and 0.3 % (w/v) agar] (purchased from Sigma-Aldrich) at an initial cell number of 2×10^4. On the other hand, a six-well culture dish was coated with the bottom agar [containing DMEM, 10 % (v/v) FCS and 0.6 % (w/v) agar] (purchased from Sigma-Aldrich), 2 ml for each well. After the bottom agar was solidified, each group of the top agar (containing oral cancer stem cells) was respectively added onto the bottom agar in different wells of the dish, 2 ml for each well. […] Lastly, the bottom agar was stained with 0.005 % crystal violet, the number of colonies (with a diameter ≥100 µm) was counted over five fields per well with the use of a microscope, and those fields were photographed. The relative colony-forming ability of cells of each experimental group was calculated based on the result of the group treated with 0 µg/ml of BP.

CCCC=C1OC(=O)c2ccccc21 [BP, butylidenephthalide]
viability of brain CSCs ^CD133+ (brain CSCs ^CD133+; 24-hour group and 48-hour group, BP 0-100 µg/ml, BCNU 0-1000 µM, Figure 1A, 1B): significantly decreased
IC50 (brain CSCs ^CD133+; 24 h, read-out: IC50 to brain CSCs ^CD133+): 406 µM and 76.5 µg/mL
viability of NHOKs [1]: did not decrease
expression of EZH2 protein in brain CSCs ^CD133+ (EZH2): significantly decreased
expressions of Sox-2, CD133 and CD44 proteins in MiaPaCa-2 cells [2]: significantly decreased
expressions of Axl and Gas6 proteins and the expression of Axl gene [3]: significantly decreased
expression of MMP-2 protein (MMP-2): significantly decreased
number of colonies in the bottom agar ([4]; 4 weeks culture, Figure 15A): significantly decreased
relative colony-forming ability of cancer stem cells ([4]; relative to 0 µg/ml group, Figure 15B): decreased along with the increment in the concentration of BP
